The values that follow are results of earlier work, collected in US9393230B2, “Pharmaceutical composition on the basis of phyto-nutrients with increased bioavailability, having anti-tumor activity, and method for producing said composition (alternatives)” (Nordic Labs Limited, priority 2012, dated 2016).

With `O=C(O[C@@H]1Cc2c(O)cc(O)cc2O[C@@H]1c1cc(O)c(O)c(O)c1)c1cc(O)c(O)c(O)c1` [epigallo-3-catechin, epigallocatechol-3-gallate], the solubility in water entry is on record as “water-soluble”.
